# Results from patent publication US12509445B2, “Herbicidally active 4-cyclopropyl-6-[4-(trifluormethyl)pyrazol-1-yl)]pyrimidines” (Bayer Aktiengesellschaft, priority 2019, dated 2025).
# How the values were obtained:
# Format in all cases: in vivo
# [1] = tested on: harmful plants such as Alopecurus myosuroides, Amaranthus retroflexus, Avena fatua, Echinochloa crus-galli, Matricaria inodora, Pharbitis purpurea, Polygonum …; assay: Pre-emergence herbicidal action, summary in text; conditions: pre-emergence treatment
# Excerpt: (§1) Seeds of monocotyledonous and dicotyledonous weed plants and crop plants are placed in plastic or organic plant pots and covered with soil. The compounds of the invention, formulated in the form of wettable powders (WP) or as emulsion concentrates (EC), are then applied onto the surface of the covering soil as aqueous suspension or emulsion with addition of 0.5% additive at a water application rate of 600 l/ha (converted). After the treatment, the pots are placed in a greenhouse and kept under good growth conditions for the trial plants. After about 3 weeks, the effect of the preparations is scored visually in comparison with untreated controls as percentages. For example, 100% activity=the plants have died, 0% activity=like control plants.
# At the same time, some compounds according to the invention leave graminaceous crops such as barley, wheat, rye, millet/sorghum, maize, rice or sugarcane virtually undamaged when applied by the pre-emergence method, even at high active compound dosages. Some compounds are additionally also benign to dicotyledonous crops such as soya, cotton, oilseed rape or sugarbeet.
# Viola tricolor (VIOTR) [2] = assay: Post-emergence herbicidal action; conditions: 320 g/ha, visual rating after about 3 weeks vs untreated controls, 100% = plants have died
# Protocol: (§2) Seeds of monocotyledonous and dicotyledonous weeds and crop plants are placed in sandy loam in plastic or organic plant pots, covered with soil and cultivated in a greenhouse under controlled growth conditions. 2 to 3 weeks after sowing, the test plants are treated at the one-leaf stage. The compounds of the invention, formulated in the form of wettable powders (WP) or as emulsion concentrates (EC), are then sprayed onto the green parts of the plants as aqueous suspension or emulsion with addition of 0.5% additive at a water application rate of 600 l/ha (converted). After the test plants have been kept in the greenhouse under optimum growth conditions for about 3 weeks, the activity of the preparations is rated visually in comparison to untreated controls. For example, 100% activity=the plants have died, 0% activity=like control plants.
# (§3) The abbreviations used here have the following meanings: • ABUTH Abutilon theophrasti • AMARE Amaranlhus retroflexus • CYPES Cyperus serotinus • ECHCGEchinocloa crus galli • LOLRI Lolium rigidum Gaudin • PHBPU Pharbitis purpurcum • SETVI Setaria viridis • VERPE Veronica persica • ALOMY Alopccurus myosuroides • AVEFA Avena fatua • DIGSA Digitaria sanguinalis • LOLMU Lolium multiflorum • MATIN Matricaria inodora • POLCO Polygonum convolvulus • STEME Stellaria media • VIOTR Viola tricolor
# [3] = tested on: Amaranthus retroflexus (AMARE); assay: Post-emergence herbicidal action; conditions: 320 g/ha, visual rating after about 3 weeks vs untreated controls, 100% = plants have died
# Protocol: as §2, §3
# [4] = tested on: Pharbitis purpurea (PHBPU); assay: Post-emergence herbicidal action; conditions: 320 g/ha, visual rating after about 3 weeks vs untreated controls, 100% = plants have died
# Protocol: as §2, §3
# Veronica persica (VERPE) [5] = assay: Post-emergence herbicidal action; conditions: 320 g/ha, visual rating after about 3 weeks vs untreated controls, 100% = plants have died
# Protocol: as §2, §3
# Setaria viridis (SETVI) [6] = assay: Post-emergence herbicidal action
# Protocol: as §2, §3
# (§4) The compounds according to the invention were tested by the post-emergence and pre-emergence methods under the conditions described above for comparative purposes with the structurally closest compounds known from WO 2005/089551 A1 (D1).
# [7] = tested on: Alopecurus myosuroides (ALOMY); assay: Post-emergence herbicidal action
# Protocol: as §2, §3, §4
# [8] = tested on: Matricaria inodora (MATIN); assay: Post-emergence herbicidal action
# Protocol: as §2, §3, §4
# [9] = tested on: Lolium multiflorum (LOLMU); assay: Post-emergence herbicidal action
# Protocol: as §2, §3, §4
# Stellaria media (STEME) [10] = assay: Post-emergence herbicidal action
# Protocol: as §2, §3, §4
# [11] = tested on: Echinochloa crus-galli (ECHCG); assay: Post-emergence herbicidal action
# Protocol: as §2, §3, §4
# Avena fatua (AVEFA) [12] = assay: Post-emergence herbicidal action
# Protocol: as §2, §3, §4
# [13] = tested on: Abutilon theophrasti (ABUTH); assay: Post-emergence herbicidal action
# Protocol: as §2, §3, §4
# [14] = tested on: Polygonum convolvulus (POLCO); assay: Post-emergence herbicidal action; conditions: 80 g of a.i./ha, comparative test
# Protocol: as §2, §3, §4
# [15] = tested on: harmful plants such as Abutilon theophrasti, Alopecurus myosuroides, Amaranthus retroflexus, Avena fatua, Echinochloa crus-galli, Matricaria inodora, Pharbitis …; assay: Post-emergence herbicidal action, summary in text; conditions: post-emergence treatment
# Protocol: as §2
# In this case, for example, in the post-emergence process, the compounds No. 1-001 and 111-001 have very good herbicidal activity (80% to 100% herbicidal action) against harmful plants such as Abutilon theophrasti, Alopecurus myosuroides, Amaranthus retroflexus, Avena fatua, Echinochloa crus-galli, Matricaria inodora, Pharbitis purpurea, Setaria viridis, Stellaria media, Veronica persica and Viola tricolor at an application rate of 0.32 kg of active substance or less per hectare. At the same time, some compounds according to the invention leave graminaceous crops such as barley, wheat, rye, millet/sorghum, maize, rice or sugarcane virtually undamaged when applied by the post-emergence method, even at high active compound dosages. Some substances are additionally also benign to dicotyledonous crops such as soya, cotton, oilseed rape or sugarbeet.
# Setaria viridis (SETVI) [16] = assay: Pre-emergence herbicidal action
# Excerpt: as §3, §1, §4
# Viola tricolor (VIOTR) [17] = assay: Pre-emergence herbicidal action
# Excerpt: as §3, §1, §4
# [18] = tested on: Alopecurus myosuroides (ALOMY); assay: Pre-emergence herbicidal action
# Excerpt: as §3, §1, §4
# [19] = tested on: Matricaria inodora (MATIN); assay: Pre-emergence herbicidal action
# Excerpt: as §3, §1, §4
# Stellaria media (STEME) [20] = assay: Pre-emergence herbicidal action
# Excerpt: as §3, §1, §4
# [21] = tested on: Echinochloa crus-galli (ECHCG); assay: Pre-emergence herbicidal action
# Excerpt: as §3, §1, §4
# [22] = tested on: Polygonum convolvulus (POLCO); assay: Pre-emergence herbicidal action
# Excerpt: as §3, §1, §4
# [23] = tested on: Amaranthus retroflexus (AMARE); assay: Pre-emergence herbicidal action; conditions: 320 g/ha, visual scoring after about 3 weeks vs untreated controls, 100% = plants have died
# Excerpt: as §3, §1
# [24] = tested on: Cyperus serotinus (CYPES); assay: Pre-emergence herbicidal action; conditions: 320 g/ha, visual scoring after about 3 weeks vs untreated controls, 100% = plants have died
# Excerpt: as §3, §1
# [25] = tested on: Lolium multiflorum (LOLMU); assay: Pre-emergence herbicidal action; conditions: 320 g/ha, visual scoring after about 3 weeks vs untreated controls, 100% = plants have died
# Excerpt: as §3, §1
# [26] = tested on: Pharbitis purpurea (PHBPU); assay: Pre-emergence herbicidal action; conditions: 320 g/ha, visual scoring after about 3 weeks vs untreated controls, 100% = plants have died
# Excerpt: as §3, §1
# Veronica persica (VERPE) [27] = assay: Pre-emergence herbicidal action; conditions: 320 g/ha, visual scoring after about 3 weeks vs untreated controls, 100% = plants have died
# Excerpt: as §3, §1
# Avena fatua (AVEFA) [28] = assay: Pre-emergence herbicidal action; conditions: 320 g/ha, visual scoring after about 3 weeks vs untreated controls, 100% = plants have died
# Excerpt: as §3, §1
# [29] = tested on: Abutilon theophrasti (ABUTH); assay: Pre-emergence herbicidal action; conditions: 320 g/ha, visual scoring after about 3 weeks vs untreated controls, 100% = plants have died
# Excerpt: as §3, §1
# [30] = 80 g of a.i./ha, comparative test
# [31] = 320 g/ha, visual rating after about 3 weeks vs untreated controls, 100% = plants have died
# [32] = 320 g/ha, visual scoring after about 3 weeks vs untreated controls, 100% = plants have died
structure (smiles),measurement,setting,value
"FC(F)(F)c1cnn(-c2cc(C3CC3)nc(Oc3ccnc(C(F)(F)F)c3)n2)c1 [Example I-001, 4-cyclopropyl-6-[4-(trifluoromethyl)-1H-pyrazol-1-yl]-2-{[2-(trifluoromethyl)pyridin-4-yl]oxy}pyrimidine]",herbicidal action against harmful plants (in words),[1],good herbicidal action
same,Post-emergence action VIOTR,Viola tricolor (VIOTR) [2],100%
same,Post-emergence action AMARE,[3],90%
same,Post-emergence action PHBPU,[4],90%
same,Post-emergence action VERPE,Veronica persica (VERPE) [5],100%
same,Herbicidal action against SETVI,Setaria viridis (SETVI) [6]; [30],90%
same,Post-emergence action SETVI,Setaria viridis (SETVI) [6]; [31],100%
same,Herbicidal action against ALOMY,[7]; [30],80%
same,Post-emergence action ALOMY,[7]; [31],90%
same,Herbicidal action against MATIN,[8]; [30],90%
same,Post-emergence action MATIN,[8]; [31],90%
same,Herbicidal action against LOLMU,[9]; [30],90%
same,Post-emergence action LOLMU,[9]; [31],100%
same,Herbicidal action against STEME,Stellaria media (STEME) [10]; [30],90%
same,Post-emergence action STEME,Stellaria media (STEME) [10]; [31],100%
same,Herbicidal action against ECHCG,[11]; [30],90%
same,Post-emergence action ECHCG,[11]; [31],90%
same,Herbicidal action against AVEFA,Avena fatua (AVEFA) [12]; [30],80%
same,Post-emergence action AVEFA,Avena fatua (AVEFA) [12]; [31],90%
same,Herbicidal action against ABUTH,[13]; [30],90%
same,Post-emergence action ABUTH,[13]; [31],100%
same,Herbicidal action against POLCO,[14],100%
same,herbicidal action against harmful plants (in words),[15],good herbicidal action
same,Herbicidal action against SETVI,Setaria viridis (SETVI) [16]; [30],100%
same,Pre-emergence action SETVI,Setaria viridis (SETVI) [16]; [32],100%
same,Herbicidal action against VIOTR,Viola tricolor (VIOTR) [17]; [30],100%
same,Pre-emergence action VIOTR,Viola tricolor (VIOTR) [17]; [32],100%
same,Herbicidal action against ALOMY,[18]; [30],100%
same,Pre-emergence action ALOMY,[18]; [32],100%
same,Herbicidal action against MATIN,[19]; [30],100%
same,Pre-emergence action MATIN,[19]; [32],100%
same,Herbicidal action against STEME,Stellaria media (STEME) [20]; [30],100%
same,Pre-emergence action STEME,Stellaria media (STEME) [20]; [32],100%
same,Herbicidal action against ECHCG,[21]; [30],100%
same,Pre-emergence action ECHCG,[21]; [32],100%
same,Herbicidal action against POLCO,[22]; [30],100%
same,Pre-emergence action POLCO,[22]; [32],100%
same,Pre-emergence action AMARE,[23],90%
same,Pre-emergence action CYPES,[24],80%
same,Pre-emergence action LOLMU,[25],100%
same,Pre-emergence action PHBPU,[26],100%
same,Pre-emergence action VERPE,Veronica persica (VERPE) [27],100%
same,Pre-emergence action AVEFA,Avena fatua (AVEFA) [28],100%
same,Pre-emergence action ABUTH,[29],90%
